# From article PMC7703437, “In Vitro Hepatic Metabolism of Curcumin Diethyl Disuccinate by Liver S9 from Different Animal Species” (Frontiers in Pharmacology, 2020)
# Legend:
# [1] = In vitro metabolism profiling of CDD in human liver S9 (1 mg/ml); format: in vitro ADME; conditions: pooled liver S9; human LS9 1 mg/ml; read-out: t 1/2 (CDD)
# Description: (§1) The metabolism profiles of CDD were investigated against HLS9, MLS9, DLS9, and RLS9. A stock solution of CDD was prepared at 150 µM in 50% acetonitrile in water before use. The metabolism study was initiated by spiking 735 µl of preincubated LS9 with 15 µl of CDD stock solution, and the mixture was subsequently incubated at 37°C. The final concentrations of CDD and LS9 were 3 μM and 1 mg/ml, respectively. A 50-µl aliquot from the mixture was collected at 0.5, 1, 2, 3, 4, 5, 10, 15, 30, 45, 60, 90, and 120 min and immediately mixed with 100 µl of ice-cold acetonitrile containing 0.45 µM of internal standard DMC to terminate the metabolic reaction. […] The sample at the initial time point (0 min) was prepared as the other samples, except that heat-inactivated HLS9, MLS9, DLS9, and RLS9 (80°C for 20 min; 1 mg/ml protein) were used.
# (§2) The UHPLC system consisted of an Agilent series 1290 quaternary pump with an online degasser, autosampler, column oven, and diode array detector. The mobile phase was composed of (A) 0.1% (v/v) formic acid in acetonitrile and (B) 0.1% (v/v) formic acid in water. Each solution was filtered through a nylon filter (pore size, 0.22 µm; MS® Membrane Filters; Membrane Solutions, United States) before use. The mobile phase flow rate was kept at 1.2 ml/min in a gradient mode using the following elution program: 0–3.0 min, initial A-B (40:60, v/v); 4.5–7.0 min, isocratic elution A-B [50:50, (v/v); 8.5–11.0 min, isocratic elution A-B (60:40, v/v); and 12.0–17.0 min, isocratic elution A-B (40:60, v/v)]. CDD, curcumin, and MSCUR in the supernatant were partitioned using a C8 column (4.6 mm × 50 mm, 2.7 µm; HALO, Advanced Materials Technology, United States) with reference to DMC. The detection wavelength was set at 400 nm (λ max(CDD) = 400 nm, λ max(curcumin) = 427 nm, λ max(MSCUR) = 418 nm, and λ max(DMC) = 421 nm). The column was maintained at 35°C throughout the run, and the supernatant injection volume was set at 20 µl.
# (§3) The concentrations of CDD, curcumin, and MSCUR in the supernatant were determined from the standard plots, which were prepared by spiking individual working solutions of the compounds to heat-inactivated HLS9, MLS9, DLS9, and RLS9 ([Alcorn et al., 2007]; [Montoro-Garcia et al., 2009]; [Singh et al., 2010]). These working standards were extracted with 100 µl of ice-cold acetonitrile containing 0.45 µM of DMC and then 120 μl of the supernatant was diluted with 40 μl of water prior to the UHPLC analysis. The peak area ratios of CDD, curcumin, and MSCUR to the internal standard were computed against linear concentration ranges of 0.025–4.5 µM CDD, 0.025–4.5 µM curcumin, and 0.0125–0.75 µM MSCUR, respectively, with the coefficient of determination (r^2) values greater than 0.99.
# (§4) The percent content of CDD and the metabolites formed upon its incubation with LS9, namely, curcumin and MSCUR, was plotted against incubation time.
# (§5) The following equations were adopted to describe the changes in CDD and MSCUR content over time (t): A = A0e^−k1t (2) B= k1A0/k2−k1(e^−k1t−e^−k2t), (3) where A0 is the CDD concentration at time 0, k 1 is the degradation rate constant of CDD, and k 2 is the degradation rate constant of MSCUR. k 1 and k 2 were determined by using Eqs. 2 and 3, respectively, with nonlinear regression analysis using the SOLVER function of Microsoft Excel for Office 365 MSO (16.0.12527.20986) ([Brown, 2001]). The half-life (t 1/2) was calculated using Eq. 4: t1/2=0.693/k (4)
# (§6) The in vitro intrinsic clearance (CLint,in vitro) of CDD and MSCUR in LS9 was calculated using Eq. 5: CLint, in vitro= k × [V]incubation(ml)/[P]incubation(mg protein), (5) where [V]incubation is the incubation volume in ml, and [P]incubation is the amount of LS9. […]
# human LS9 (HLS9; pooled) = test: as above; format: in vitro ADME
# Description: as §1, §2, §3, §4, §5, §6
# [2] = In vitro metabolism profiling of CDD, statements for LS9 from all tested species; format: in vitro ADME, human, monkey, dog, rat; conditions: beagle (dog); Sprague-Dawley (rat), human, monkey, dog, rat, liver S9 (LS9); all LS9s; read-out: t 1/2 of CDD
# Description: as §1, §2
# (§7) The concentrations of CDD, curcumin, and MSCUR in the supernatant were determined from the standard plots, which were prepared by spiking individual working solutions of the compounds to heat-inactivated HLS9, MLS9, DLS9, and RLS9 ([Alcorn et al., 2007]; [Montoro-Garcia et al., 2009]; [Singh et al., 2010]). […]
# as §5, with “2 and 3, respectively, with nonlinear regression analysis using the SOLVER function of Microsoft Excel for Office 365 MSO (16.0.12527.20986) ([Brown, 2001]).” left out
# [3] = tested on: LS9 from all tested species (HLS9, MLS9, DLS9, RLS9); test: as above; format: in vitro ADME, human, monkey, dog, rat; conditions: within the first 15 min of incubation, LS9 1 mg/ml from all tested species, CDD 3 µM
# Description: as §1, §2, §7
# as §5, with “2 and 3, respectively, with nonlinear regression analysis using the SOLVER function of Microsoft Excel for Office 365 MSO (16.0.12527.20986) ([Brown, 2001]).” left out
structure (smiles),measurement,setting,value
"CCOC(=O)CCC(=O)Oc1ccc(/C=C/C(=O)/C=C(O)/C=C/c2ccc(OC(=O)CCC(=O)OCC)c(OC)c2)cc1OC [CDD, curcumin diethyl disuccinate]",half-life,[1],27.6 ± 3.6 s
same,"CLint, in vitro(CDD) in HLS9 higher than in DLS9",human LS9 (HLS9; pooled); HLS9 vs DLS9,1.8 fold
same,"CLint, in vitro(CDD) in HLS9 higher than in MLS9",human LS9 (HLS9; pooled); HLS9 vs MLS9,1.9 fold
same,"CLint, in vitro(CDD) in HLS9 higher than in RLS9",human LS9 (HLS9; pooled); HLS9 vs RLS9,2.2 fold
same,"CLint, in vitro(CDD)",human LS9 (HLS9; pooled); human LS9,1.51 ± 0.22 ml min^−1 mg protein^−1
same,k 1 (CDD),"human LS9 (HLS9; pooled); human LS9 1 mg/ml, CDD 3 µM, 37°C",1.51 ± 0.22 min⁻¹
same,"CLint, in vivo(CDD)","human LS9 (HLS9; pooled); human, scaled from CLint,in vitro with physiologically based scaling factors",282.18 ± 41.74 L/h/kg
same,"CLint, in vivo total","human LS9 (HLS9; pooled); human, sum of CLint,in vivo(CDD) and CLint,in vivo(MSCUR)","2,533.38 ± 124.30 L h^−1 kg^−1"
same,CLH (predicted hepatic clearance),"human LS9 (HLS9; pooled); human, well-stirred model, QH 20 ml min^−1 kg^−1, fup 0.0594",1.19 ± 4.61 × 10^–4 L h^−1 kg^−1
same,half-life at 3 µM,[2],< 62.4 s
same,CDD hydrolyzed,[3],more than 95%
